According to patent US11377442B2, “Small molecule agonists and antagonists of NR2F6 activity” (ZANDER THERAPEUTICS, INC., priority 2016, dated 2022):
Like-named read-outs stand apart in the source and are kept apart here.

Tests used:
Type in all cases: cell-based
[1] = target: T1, NR2F6 (Homo sapiens, UniProt P10588); assay: NR2F6 agonist screening, Firefly signal cmpd/DMSO
T1 construct: expressed in transfected cells; also transient transfection
T1 sequence (P10588 1-404): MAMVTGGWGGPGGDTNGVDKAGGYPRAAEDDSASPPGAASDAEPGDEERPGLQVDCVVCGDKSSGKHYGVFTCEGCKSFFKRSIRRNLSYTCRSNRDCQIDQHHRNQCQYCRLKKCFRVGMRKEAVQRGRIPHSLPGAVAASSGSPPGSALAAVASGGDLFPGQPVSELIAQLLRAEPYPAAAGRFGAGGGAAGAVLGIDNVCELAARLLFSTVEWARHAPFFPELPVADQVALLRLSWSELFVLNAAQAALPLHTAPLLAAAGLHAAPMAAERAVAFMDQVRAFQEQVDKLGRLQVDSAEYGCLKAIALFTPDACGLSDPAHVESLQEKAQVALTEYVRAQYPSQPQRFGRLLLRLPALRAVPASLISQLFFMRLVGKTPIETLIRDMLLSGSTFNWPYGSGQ

[2] = tested on: Renilla; assay: Renilla signal in NR2F6 agonist screening, cmpd/DMSO; conditions: Renilla, F4
[3] = tested on: HEK293 pGL4; assay: Firefly_pGL signal, cmpd/DMSO (pGL4 control cells); conditions: Homo sapiens
[4] = target: T2, NR2F6 LBD (Homo sapiens, UniProt P10588); assay: NR2F6 LBD transient transfection; conditions: LBD
T2 construct: expressed in transfected cells
T2 sequence (P10588 165-393 limits assumed): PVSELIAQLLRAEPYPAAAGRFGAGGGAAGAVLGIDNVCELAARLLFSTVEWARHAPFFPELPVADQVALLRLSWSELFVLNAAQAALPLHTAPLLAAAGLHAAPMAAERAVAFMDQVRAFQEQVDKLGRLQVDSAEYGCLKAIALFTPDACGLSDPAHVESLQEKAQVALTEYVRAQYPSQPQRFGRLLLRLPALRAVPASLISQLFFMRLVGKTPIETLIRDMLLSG
Summary of the method: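 LBD-transfected cells treated at 40, 10, 2 and 0.5 μM (4 replicates); cytotoxicity measured in parallel, normalized to DMSO (0%) and zero signal (100%). Higher concentrations excluded where signal loss reflected toxicity.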

[5] = read-out: Renilla, F4, cmpd/DMSO (mean)
[6] = 1% FBS, read-out: Renilla, F4, 1% FBS, cmpd/DMSO (mean)
[7] = 10% FBS, read-out: Renilla, F4, 10% FBS, cmpd/DMSO (mean)
[8] = HEK293, 0.5 uM, pGL4, read-out: Firefly pGL4, cmpd/DMSO (mean)
[9] = HEK293, 2 uM, pGL4, read-out: Firefly pGL4, cmpd/DMSO (mean)
[10] = HEK293, 10 uM, pGL4, read-out: Firefly pGL4, cmpd/DMSO (mean)
[11] = HEK293, 40 uM, pGL4, read-out: Firefly pGL4, cmpd/DMSO (mean)
[12] = HEK293, pGL4, 1% FBS, 0.5 uM, read-out: Firefly, pGL4, 1% FBS, cmpd/DMSO (mean)
[13] = HEK293, pGL4, 1% FBS, 2 uM, read-out: Firefly, pGL4, 1% FBS, cmpd/DMSO (mean)
[14] = HEK293, pGL4, 1% FBS, 10 uM, read-out: Firefly, pGL4, 1% FBS, cmpd/DMSO (mean)
[15] = HEK293, pGL4, 1% FBS, 40 uM, read-out: Firefly, pGL4, 1% FBS, cmpd/DMSO (mean)
[16] = HEK293, pGL4, 10% FBS, 0.5 uM, read-out: Firefly, pGL4, 10% FBS, cmpd/DMSO (mean)
[17] = HEK293, pGL4, 10% FBS, 2 uM, read-out: Firefly, pGL4, 10% FBS, cmpd/DMSO (mean)
[18] = HEK293, pGL4, 10% FBS, 10 uM, read-out: Firefly, pGL4, 10% FBS, cmpd/DMSO (mean)
[19] = HEK293, pGL4, 10% FBS, 40 uM, read-out: Firefly, pGL4, 10% FBS, cmpd/DMSO (mean)

Structure (SMILES): O=S1(=O)C[C@H](NC2CCCC2)[C@@H](S(=O)(=O)c2ccc(F)cc2)C1 [Compound D114]
- Firefly F4, cmpd/DMSO (mean) ([1]; 0.5 uM): 1.6
- Firefly F4, cmpd/DMSO (mean) ([1]; 2 uM): 1.6
- Firefly F4, cmpd/DMSO (mean) ([1]; 10 uM): 2.4
- Firefly F4, cmpd/DMSO (mean) ([1]; 40 uM): 3.6
- F4, Firefly/Renilla for S/B(F4) > 3 ([1]; 10% FBS, 40 uM): 2.1
- Firefly, F4/pGL4 for S/B(F4) > 3 ([1]; 10% FBS, 40 uM): 1.6
- Firefly, F4, 1% FBS, cmpd/DMSO (mean) ([1]; 0.5 uM): 1.3
- Firefly, F4, 1% FBS, cmpd/DMSO (mean) ([1]; 2 uM): 1.0
- Firefly, F4, 1% FBS, cmpd/DMSO (mean) ([1]; 10 uM): 1.8
- Firefly, F4, 1% FBS, cmpd/DMSO (mean) ([1]; 40 uM): 2.2
- Firefly, F4, 10% FBS, cmpd/DMSO (mean) ([1]; 10% FBS, 0.5 uM): 1.2
- Firefly, F4, 10% FBS, cmpd/DMSO (mean) ([1]; 10% FBS, 2 uM): 1.1
- Firefly, F4, 10% FBS, cmpd/DMSO (mean) ([1]; 10% FBS, 10 uM): 1.7
- Firefly, F4, 10% FBS, cmpd/DMSO (mean) ([1]; 10% FBS, 40 uM): 3.2
- fold induction at 0.5 µM [2, 5]: 1
- fold induction at 2 µM [2, 5]: 1.1
- fold induction at 10 µM [2, 5]: 1.2
- fold induction at 40 µM [2, 5]: 1.3
- fold induction at 0.5 µM [2, 6]: 1.1
- fold induction at 2 µM [2, 6]: 1.2
- fold induction at 10 µM [2, 6]: 1.7
- fold induction at 40 µM [2, 6]: 1.8
- fold induction at 0.5 µM [2, 7]: 0.9
- fold induction at 2 µM [2, 7]: 1
- fold induction at 10 µM [2, 7]: 1.1
- fold induction at 40 µM [2, 7]: 1.5
- fold induction at 0.5 µM [3, 8]: 1.1
- fold induction at 2 µM [3, 9]: 1.3
- fold induction at 10 µM [3, 10]: 2
- fold induction at 40 µM [3, 11]: 2
- fold induction at 0.5 µM [3, 12]: 1.1
- fold induction at 2 µM [3, 13]: 1.3
- fold induction at 10 µM [3, 14]: 1.7
- fold induction at 40 µM [3, 15]: 1.5
- fold induction at 0.5 µM [3, 16]: 1.3
- fold induction at 2 µM [3, 17]: 1.3
- fold induction at 10 µM [3, 18]: 1.5
- fold induction at 40 µM [3, 19]: 2
- Firefly LBD, cmpd/DMSO (mean) ([4]; 0.5 uM): 1.1
- Firefly LBD, cmpd/DMSO (mean) ([4]; 2 uM): 1.3
- Firefly LBD, cmpd/DMSO (mean) ([4]; 10 uM): 1.9
- Firefly LBD, cmpd/DMSO (mean) ([4]; 40 uM): 2.2

Structure (SMILES): Cc1cc(S(=O)(=O)[C@H]2CS(=O)(=O)C[C@@H]2NCC2CCCO2)ccc1F (some centres unmarked) [Compound D115]
- Firefly F4, cmpd/DMSO (mean) ([1]; 0.5 uM): 1.0
- Firefly F4, cmpd/DMSO (mean) ([1]; 2 uM): 1.1
- Firefly F4, cmpd/DMSO (mean) ([1]; 10 uM): 1.4
- Firefly F4, cmpd/DMSO (mean) ([1]; 40 uM): 2.2
- Firefly, F4, 1% FBS, cmpd/DMSO (mean) ([1]; 0.5 uM): 1.0
- Firefly, F4, 1% FBS, cmpd/DMSO (mean) ([1]; 2 uM): 0.8
- Firefly, F4, 1% FBS, cmpd/DMSO (mean) ([1]; 10 uM): 1.1
- Firefly, F4, 1% FBS, cmpd/DMSO (mean) ([1]; 40 uM): 1.8
- Firefly, F4, 10% FBS, cmpd/DMSO (mean) ([1]; 10% FBS, 0.5 uM): 1.5
- Firefly, F4, 10% FBS, cmpd/DMSO (mean) ([1]; 10% FBS, 2 uM): 1.3
- Firefly, F4, 10% FBS, cmpd/DMSO (mean) ([1]; 10% FBS, 10 uM): 0.7
- Firefly, F4, 10% FBS, cmpd/DMSO (mean) ([1]; 10% FBS, 40 uM): 1.3
- fold induction at 0.5 µM [2, 5]: 1
- fold induction at 2 µM [2, 5]: 1
- fold induction at 10 µM [2, 5]: 1
- fold induction at 40 µM [2, 5]: 1.1
- fold induction at 0.5 µM [2, 6]: 1.1
- fold induction at 2 µM [2, 6]: 1
- fold induction at 10 µM [2, 6]: 1.2
- fold induction at 40 µM [2, 6]: 1.5
- fold induction at 0.5 µM [2, 7]: 1
- fold induction at 2 µM [2, 7]: 1
- fold induction at 10 µM [2, 7]: 1.1
- fold induction at 40 µM [2, 7]: 1.3
- fold induction at 0.5 µM [3, 8]: 1.2
- fold induction at 2 µM [3, 9]: 1.2
- fold induction at 10 µM [3, 10]: 1.3
- fold induction at 40 µM [3, 11]: 2
- fold induction at 0.5 µM [3, 12]: 1.1
- fold induction at 2 µM [3, 13]: 1.2
- fold induction at 10 µM [3, 14]: 1.2
- fold induction at 40 µM [3, 15]: 1.6
- fold induction at 0.5 µM [3, 16]: 1.2
- fold induction at 2 µM [3, 17]: 1.2
- fold induction at 10 µM [3, 18]: 1.6
- fold induction at 40 µM [3, 19]: 2.1
- Firefly LBD, cmpd/DMSO (mean) ([4]; 0.5 uM): 0.9
- Firefly LBD, cmpd/DMSO (mean) ([4]; 2 uM): 0.9
- Firefly LBD, cmpd/DMSO (mean) ([4]; 10 uM): 1.3
- Firefly LBD, cmpd/DMSO (mean) ([4]; 40 uM): 2.2

Structure (SMILES): CC(=O)N1CCN([C@H]2CS(=O)(=O)C[C@@H]2S(=O)(=O)c2ccc(F)c(C)c2)CC1 [Compound D116]
- Firefly F4, cmpd/DMSO (mean) ([1]; 0.5 uM): 1.5
- Firefly F4, cmpd/DMSO (mean) ([1]; 2 uM): 1.0
- Firefly F4, cmpd/DMSO (mean) ([1]; 10 uM): 1.4
- Firefly F4, cmpd/DMSO (mean) ([1]; 40 uM): 1.2
- Firefly, F4, 1% FBS, cmpd/DMSO (mean) ([1]; 0.5 uM): 1.2
- Firefly, F4, 1% FBS, cmpd/DMSO (mean) ([1]; 2 uM): 0.9
- Firefly, F4, 1% FBS, cmpd/DMSO (mean) ([1]; 10 uM): 0.9
- Firefly, F4, 1% FBS, cmpd/DMSO (mean) ([1]; 40 uM): 1.1
- Firefly, F4, 10% FBS, cmpd/DMSO (mean) ([1]; 10% FBS, 0.5 uM): 1.1
- Firefly, F4, 10% FBS, cmpd/DMSO (mean) ([1]; 10% FBS, 2 uM): 1.4
- Firefly, F4, 10% FBS, cmpd/DMSO (mean) ([1]; 10% FBS, 10 uM): 1.3
- Firefly, F4, 10% FBS, cmpd/DMSO (mean) ([1]; 10% FBS, 40 uM): 0.8
- fold induction at 0.5 µM [2, 5]: 1
- fold induction at 2 µM [2, 5]: 1.1
- fold induction at 10 µM [2, 5]: 1.1
- fold induction at 40 µM [2, 5]: 1.1
- fold induction at 0.5 µM [2, 6]: 1
- fold induction at 2 µM [2, 6]: 1.1
- fold induction at 10 µM [2, 6]: 1
- fold induction at 40 µM [2, 6]: 1.2
- fold induction at 0.5 µM [2, 7]: 0.8
- fold induction at 2 µM [2, 7]: 0.9
- fold induction at 10 µM [2, 7]: 0.9
- fold induction at 40 µM [2, 7]: 1.2
- fold induction at 0.5 µM [3, 8]: 1
- fold induction at 2 µM [3, 9]: 1.2
- fold induction at 10 µM [3, 10]: 1.1
- fold induction at 40 µM [3, 11]: 1.4
- fold induction at 0.5 µM [3, 12]: 1.6
- fold induction at 2 µM [3, 13]: 1
- fold induction at 10 µM [3, 14]: 1.7
- fold induction at 40 µM [3, 15]: 1.4
- fold induction at 0.5 µM [3, 16]: 1.1
- fold induction at 2 µM [3, 17]: 1.1
- fold induction at 10 µM [3, 18]: 1.4
- fold induction at 40 µM [3, 19]: 1.5
- Firefly LBD, cmpd/DMSO (mean) ([4]; 0.5 uM): 0.9
- Firefly LBD, cmpd/DMSO (mean) ([4]; 2 uM): 1.2
- Firefly LBD, cmpd/DMSO (mean) ([4]; 10 uM): 1.1
- Firefly LBD, cmpd/DMSO (mean) ([4]; 40 uM): 1.2
